The values below come from a melting point compilation (Tetko et al.; mined from patent text by program, amines drawn as free bases though some values may be those of a salt).

As usually defined, the melting point is the temperature, or range, at which the solid turns liquid.

Consider `Cc1cc(SC2=C(O)CC(CCc3ccncc3)(C(C)C)OC2=O)c(C(C)(C)C)cc1CO` (stereo not drawn), for which the melting point fell in the range of 140 to 155 °C.

In turn, `Cc1nnc(NCc2ccccc2)s1` displayed a melting point of 140 °C. The same measure for `CSc1nccc(Oc2ccc(NC(=O)c3cc(F)cc(OC4CCCC4)c3)c3ccccc23)n1`: 115 to 116 °C.

Compound `C=CC[C@H](CC(=O)OC(C)(C)C)C(=O)N[C@H](C(=O)N[C@H](C)c1ccccc1)C(C)(C)C` came in with a melting point of 123 to 126 °C. Compound `CCOC(=O)Cc1c(CCc2ccc(OC)cc2)oc2ccc(C#N)cc12` registered a melting point of 85 to 86 °C. Turning to `CCOC(=O)c1cc2c(cn1)[nH]c1cccc(Oc3ncccn3)c12`, the melting point was in the range of 273 to 275 °C.

Regarding `CC(C(=O)O)c1ccc2c(c1)C(=O)c1ccc(Cl)cc1CS2` (stereo not drawn), the melting point is 137 to 138 °C. Next, `CSCCC(=N)NS(N)(=O)=O`: 88 to 91 °C; `CC1CCc2c(c(OCc3ccccn3)nn3c(-c4ccccc4)nnc23)C1` (stereo not drawn): 152 to 154 °C; `CC(C)(O)CCNC(=O)c1nn(C2CCCCO2)cc1NC(=O)c1ccccn1` (stereo not drawn): 138 to 139 °C. Next, `CN(C)C(=O)c1nc(-c2ccccc2)nc2c1c1ccc(Cl)cc1n2C`: 211 to 213 °C; `O=C1CCc2cc(O)ccc21`: 185 to 187 °C. The compound `CC1(C)c2ccc([N+](=O)[O-])cc2C(NC(=O)Nc2ccccc2)C1O` (stereo not drawn) gave a melting point of 194 to 195 °C. `O=C(NC1CC2CCC1C2)n1cc(F)c(=O)[nH]c1=O` (stereo not drawn) showed a melting point of 252 to 255 °C.

`CCOC(=NC(=O)Nc1ccc(OC(F)(F)F)cc1)c1ccccc1Cl` showed a melting point of 86 to 89 °C. For the compound `COc1ccc(OC)c(C(=O)N2CCc3cc(O)ccc3C2)c1`, the melting point was 61 to 86 °C. For `CS(=O)(=O)C(=C1CN(C(c2ccc(Cl)cc2)c2ccc(Cl)cc2)C1)c1cc(F)cc(F)c1`, the melting point was determined as 200 °C. Take `O=C1NCC(CCc2ccccc2Br)O1` (stereo not drawn): the melting point is 93.5 to 94.5 °C. Turning to `CCCCCCCCCCCCCCCCCCCCC(CCCCCCCCCCCCCC)C(=O)O` (stereo not drawn), the melting point lay in the range of 65 to 67 °C. For the compound `CCOC(=O)C1=C(C(OC)OC)Nc2nccn2C1c1cccc([N+](=O)[O-])c1` (stereo not drawn), the melting point fell in the range of 190 to 191 °C.

`Cc1nc(-c2c(Cl)cc(C(F)(F)F)cc2Cl)[nH]c1S(N)(=O)=O` returned a melting point of 266 to 267 °C.

The compound `c1cnc(-c2noc(C3CC3)n2)cn1` gave a melting point of 95 to 98 °C.

With `N#Cc1cc(NC(=O)c2ccccc2F)ccc1-n1nc(C(F)(F)F)cc1C(F)(F)F`, the melting point was in the range of 132 to 134 °C. The same measure for `CCS(=O)(=O)N(C)C1CCCOc2c(C)cc(Cl)cc21` (stereo not drawn): 141 to 143 °C; for `COc1ccccc1Oc1c(Cl)ncnc1Cl`: 79 to 80 °C. The same measure for `CC(C)c1cccc(C(C)C)c1NC(=O)Cc1c(-c2ccccc2)c2cc(Cl)ccc2n(C)c1=O`: 237 to 238 °C; for `COc1cc(C=Cc2cc(=O)n3cccc(C)c3n2)cc(OC)c1OC`: 208 to 210 °C; for `CC1Cc2ccccc2C(C(S)(C#N)C(=O)O)=N1` (stereo not drawn): 159 to 160 °C. Next, `CC(=O)Nc1ccc(Sc2ccccc2)cc1`: 142 to 144 °C; `COc1cc(-c2cc(=O)c3ccc(OCC(O)CNC(C)(C)C)cc3o2)cc(OC)c1OC` (stereo not drawn): 119 to 120 °C. With `CN(Cc1cc2c(=O)c(C(=O)NCc3ccc(Cl)cc3)cn(C)c2o1)CC(O)c1cc2ccccc2o1` (stereo not drawn), the melting point fell in the range of 176 to 179 °C.

`O=c1c(CCCCc2ccncc2)cc2cccnc2n1-c1cccc([N+](=O)[O-])c1`: the melting point fell in the range of 169 to 170 °C. As for `COC(=O)C(C)CNc1nc2ccccc2o1` (stereo not drawn), the melting point lay within 89 to 90 °C. `COc1ccc(N=C(C#Cc2ccccc2OC)N2CCN(Cc3ccc(C)cc3)CC2)cc1` gave a melting point of 83 °C. Next, `O=Cc1ccccc1C=C1c2ccccc2CCc2ccccc21`: 199 °C; `CCNC(=O)N1C[C@@H](c2c[nH]c3ccccc23)[C@H](c2cn3c4c(cccc24)CCC3)C1`: 278 to 279 °C. `CCN1CCN(Cc2ccc(NC(=O)Nc3ccc(Oc4cc(Cl)ncn4)cc3)cc2)CC1` had a melting point of 203 to 204 °C. In turn, `O=C(O)Cc1cccc(Oc2cccc(Cl)c2Cl)c1[N+](=O)[O-]` came in with a melting point of 178 to 183 °C.

`CC(C)CC(NC(=O)c1ccc(F)cc1SSc1cc(F)ccc1C(=O)NC(CC(C)C)C(=O)O)C(=O)O` (stereo not drawn) came in with a melting point of 261 to 262 °C. Take `ClCc1cc(-c2ccccc2)no1`: the melting point lay within 69 to 70 °C.

`CN(C)C1Cc2cccc3[nH]c(=O)n(c23)C1` (stereo not drawn) showed a melting point of 220 to 223 °C. As to `CC(=O)Oc1cc(CCc2ccccc2)cc(OC(C)=O)c1`, the melting point lay in the range of 48 to 48.5 °C. Take `CC(=O)CCC(=O)N(C)c1nnc(-c2cccnc2)s1`: the melting point lay within 146 to 147 °C. `COc1ccc(C(=O)CCc2cccnc2)cc1`: the melting point is 76 to 78 °C.

`CCCCCCCCCCCCSCCCc1cc(C(C)(C)C)c(O)c(C(C)(C)C)c1` registered a melting point of 26 to 27 °C. For `Nn1cnc2cc(C(F)(F)F)ccc21`, the melting point lay within 140 to 142 °C. As for `COc1ccc(C(=O)Nc2c(Cl)cncc2Cl)c2cc(C(=O)N3CCN(C)CC3)oc12`, the melting point was in the range of 224 to 225 °C. In turn, `CCOC(=O)c1c(Cn2cncn2)nc2sc3c(c2c1-c1ccc(OC)c(OC)c1)CCCN3C(=O)OCc1ccccc1` returned a melting point of 184 to 185 °C. `Cc1ccc(S(=O)(=O)NC(=O)OCCc2ccc(-n3c(CCC(=O)c4ccccn4)nc4cc(C(F)(F)F)c(Cl)cc43)cc2)cc1`: the melting point was 234 °C. With `CCOC(=O)c1cn(-c2nncs2)c2nc(Cl)c(F)cc2c1=O`, the melting point was 201 to 203 °C. Take `CNC(=O)C[C@@H](NC(=O)OCc1ccccc1)C(C)C`: the melting point lay within 190 to 191 °C. Next, `CCOC(=O)c1cc2c(OC)cccc2[nH]1`: 168 to 170 °C; `O=C1C2CC=CCN2C(=O)N1c1cc(O)c(Cl)cc1F` (stereo not drawn): 195 to 197 °C. The same measure for `Cc1nc2c(o1)CCc1ccccc1C2=Cc1cccc(NS(C)(=O)=O)c1`: 185 °C. Consider `O=C(/C=C/C(=O)c1ccc(Cl)cc1)c1ccc(Cl)cc1`, for which the melting point was 174 to 176 °C. In turn, `CS(=O)(=O)Nc1cc(CC(=O)O)cc2c1NC(C(F)(F)F)CC2` (stereo not drawn) yielded a melting point of 189 to 191 °C. Compound `CCCOc1ccc2c(c1)C(=O)CCO2` showed a melting point of 50 to 52 °C. The compound `C#CCC1C(=O)NOc2cc(F)c(NC(=S)N3CCCC=N3)cc21` (stereo not drawn) displayed a melting point of 151 to 155 °C.

Regarding `Nc1ccc(C#Cc2cnn3c(C4CC4)cc(-c4ccc(C(F)(F)F)cc4)nc23)cn1`, the melting point was in the range of 228 to 231 °C. `O=C(NCCN1CCC2(CC1)C(=O)NCN2c1ccccc1)c1cccs1` had a melting point of 194 °C. Regarding `O=C(Nc1ccncn1)NN1CC=CCC1`, the melting point turned out to be 188 °C.

The compound `COc1ccc2c(C3=CCN(C[C@H](O)COc4cccc5[nH]ccc45)CC3)c[nH]c2c1` yielded a melting point of 155 to 160 °C.

As for `COc1ccc(COC(=O)C2=C(C3CCCO3)OC[C@@H]3[C@H](NC(c4ccccc4)(c4ccccc4)c4ccccc4)C(=O)N23)cc1` (stereo partly drawn), the melting point lay within 129 to 131 °C. The compound `COc1ccccc1-c1c(NC(=O)OC(C)(C)C)oc(=O)c2ccccc12` had a melting point of 203 to 205 °C. In the case of `O=C1N(Cc2ccc(Cl)s2)c2cccc(Br)c2C12COc1cc3c(cc12)OCO3` (stereo not drawn), the melting point lay within 85 to 87 °C. `CCCc1c(OCC(O)COc2cc(NC(=O)c3nnn[nH]3)c(C)cc2Br)ccc(C(C)=O)c1O` (stereo not drawn) gave a melting point of 155 to 158 °C.

Regarding `CC1C(=O)N(C)C(=O)N(C)C1=O`, the melting point lay within 83 to 85 °C.

Take `CNc1ccc(C23CC2C(=O)N(C)C3=O)cc1` (stereo not drawn): the melting point is 128 to 129 °C. Take `COc1ccc(-c2c3c(cc4ccc5c(c24)OCO5)C(=O)NC3)cc1`: the melting point lay within 266 to 269 °C.

The compound `OC(CCCN1CC=C(c2ccc(Cl)cc2)CC1)c1ccc(F)cc1` (stereo not drawn) displayed a melting point of 103 to 105 °C. Next, `CC(C)N1OCCC(C(O)c2cc(C(C)(C)C)c(O)c(C(C)(C)C)c2)C1=O` (stereo not drawn): 150 to 153 °C; `Cc1nc(N)nc(N)c1N1CCN(Cc2ccccc2)CC1`: 209 to 210 °C; `CCN(CC)C(=O)c1ccc2ccccc2c1/C=C/c1ccccc1`: 86 to 89 °C. Next, `ON=C(c1ccc(F)cc1)c1cccc2nc(N[C@@H]3CCc4ccccc43)ccc12`: 184 °C. In the case of `O=C(O)c1ccccc1C(=O)c1ccc(Cl)c(S(=O)(=O)Cl)c1`, the melting point lay in the range of 176 to 177 °C. `COC(=O)NCc1cccc(-c2ccccc2)c1` had a melting point of 49 to 52 °C. `CONCc1nc2c(N)nc3cc(OCc4ccccc4)ccc3c2n1CC1CCOCC1`: the melting point was in the range of 190 to 193 °C. `CC(C)(C)OC(=O)N=C(N)N(Cc1ccc(OCCC2Oc3cc([N+](=O)[O-])ccc3N(Cc3cccc(Cl)c3)C2=O)cc1)C(=O)OC(C)(C)C` (stereo not drawn) registered a melting point of 67.5 °C.

Compound `CC(C)(C)c1ccc(NC(=N)Nc2ccc(C(C)(C)C)cc2)cc1` showed a melting point of 161 to 162 °C. Compound `N#CC1c2ccccc2COc2ccc(Cl)cc21` (stereo not drawn) returned a melting point of 113 to 115 °C. The compound `O=C(Cc1ccccn1)Nc1ccc(CCCc2ccccc2OCc2ccccc2)cc1` registered a melting point of 61 to 62 °C. As for `CC(C(N)=O)c1ccc(Oc2ccc(F)cc2F)cc1` (stereo not drawn), the melting point fell in the range of 107 to 110 °C. Compound `CC(=O)O[C@@](Cn1cncn1)(c1ccccc1F)[C@@H](C)n1ccnn1` showed a melting point of 133 to 134 °C.

For `CCCOC(=O)CCC(=O)c1ccc(-c2ccccc2F)cc1`, the melting point is 53 to 54 °C. The same measure for `CCCCc1nc2c(N)nc3ccccc3c2n1CC(C)(C)C(N)=O`: 231 to 233 °C. In the case of `COc1ccc(N2CCOCC2)c2sc(-c3nc4c([nH]3)CCN(C(=O)c3ccc(F)cc3)CC4)nc12`, the melting point lay in the range of 205 to 207 °C. In the case of `CC(C)(C)OC(=O)Nc1ccc(OCc2ccccc2)c(C(=O)O)c1`, the melting point was in the range of 136 to 139 °C.

As for `CCOC(=O)C1C2C1S(=O)(=O)CC2(N)C(=O)OCC` (stereo not drawn), the melting point lay within 80 to 83 °C.
